Measurements as given in ChEMBL document CHEMBL1201862, “PubChem BioAssay data set” (2004).
Active and inactive are the calls of the source.

Key:
fMet-Leu-Phe receptor = fMet-Leu-Phe receptor (Homo sapiens, UniProt P21462); assay: formyl peptide receptor binders – dose response (AID 519); assay type: functional
BJ [1] = assay: BJ-TERT-LT-ST fibroblast viability loss – cell-based, RAS-independent, luminescence, dose response (AID 1935); assay type: functional; conditions: Homo sapiens;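 also: BJ fibroblasts immortalized with TERT plus LT and ST oncogenes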
BJ [2] = assay: BJ-TERT fibroblast viability loss – cell-based, RAS-independent, luminescence, dose response (AID 1933); assay type: functional; conditions: Homo sapiens
BJ [3] = assay: growth inhibition of engineered Ras-driven BJ cells – cell-based, alamar blue fluorescence, cherrypicked samples, dose response (AID 2631); assay type: functional; conditions: Homo sapiens;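 also: confirmatory dose-response assay in RAS-dependent BJ fibroblasts engineered with TERT, LT and ST, with cytotoxicity read by fluorescence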
[4] = DRD fibroblast viability loss – cell-based, non-viral oncogenic, luminescence, dose response (AID 1934); assay type: functional; conditions: Homo sapiens
BJ [5] = assay: cells; assay type: functional, cell-based; conditions: Homo sapiens
[6] = HGIII-sPLA2 enzyme inhibition potency – biochemical, QFRET, IC50, dose response (AID 743457);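 also: green fluorescence rise as the enzyme cleaves BODIPY PC-A2 in liposomes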
[7] = molecular target: T1, Low molecular weight phosphotyrosine protein phosphatase (Homo sapiens, UniProt P24666); assay type: functional; conditions: read-out: IC50_Mean
T1 sequence (P24666 whole entry): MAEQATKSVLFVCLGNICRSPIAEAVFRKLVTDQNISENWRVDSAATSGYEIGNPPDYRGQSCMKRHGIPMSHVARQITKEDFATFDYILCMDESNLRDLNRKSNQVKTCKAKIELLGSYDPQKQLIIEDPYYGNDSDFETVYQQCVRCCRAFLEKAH

[8] = molecular target: T1, Low molecular weight phosphotyrosine protein phosphatase; assay type: functional; conditions: read-out: IC50_Mean; remark: listed apart in the source
[9] = blockers of HIV-1 envelope-mediated cell-cell fusion – cherry-pick, dose response (AID 652057); assay type: functional, cell-based
[10] = HIV-1 AD8 envelope cell-cell fusion blockers – cherry-pick, dose response (AID 652062); assay type: functional, cell-based;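 also: luciferase signal from cell-cell fusion driven by HIV-1 clade B AD8 Env; potency is for inhibitors of fusion seen as a drop in luminescence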
[11] = off-target signal loss in HeLa-CEM21 co-culture – HeLa F-luc CTL cells, cherry-picked, counter-screen for HIV-1 Env fusion inhibitor project, dose response (AID 652040); assay type: functional, cell-based;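 also: potency for signal decrease marking cytotoxic or nonspecific inhibition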
[12] = viability loss in CEM21 cells – cell-based, CellTiter-Glo luminescence, cherry-picked, cytotoxicity control for viral fusion inhibitor project, dose response (AID 652042); assay type: functional;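 also: potency for signal decrease meaning cytotoxicity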
[13] = blockers of HIV-1 ZM109 envelope-driven cell-cell fusion – HeLa effector, CEM target cells, luciferase, cherry-pick, dose response (AID 652058); assay type: functional, cell-based;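 also: luciferase signal from HIV-1 Env mediated cell-cell fusion of effector and target cells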
cells [14] = assay type: functional, cell-based
cells [15] = assay type: functional, cell-based; remark: listed apart in the source
[16] = molecular target: T2, Oxysterols receptor LXR-beta (Homo sapiens, UniProt P55055); assay type: functional, cell-based;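 also: agonist activity at LXR measured by a cell-based luminescence readout across a dose range, run as a counterscreen for daf-12 agonists; HEK293 cells with Gal4-LXR fusion and GAL4-driven luciferase reporter; potency for activation of Gal4-LXR reporter so compounds are agonists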
T2 sequence (P55055 whole entry): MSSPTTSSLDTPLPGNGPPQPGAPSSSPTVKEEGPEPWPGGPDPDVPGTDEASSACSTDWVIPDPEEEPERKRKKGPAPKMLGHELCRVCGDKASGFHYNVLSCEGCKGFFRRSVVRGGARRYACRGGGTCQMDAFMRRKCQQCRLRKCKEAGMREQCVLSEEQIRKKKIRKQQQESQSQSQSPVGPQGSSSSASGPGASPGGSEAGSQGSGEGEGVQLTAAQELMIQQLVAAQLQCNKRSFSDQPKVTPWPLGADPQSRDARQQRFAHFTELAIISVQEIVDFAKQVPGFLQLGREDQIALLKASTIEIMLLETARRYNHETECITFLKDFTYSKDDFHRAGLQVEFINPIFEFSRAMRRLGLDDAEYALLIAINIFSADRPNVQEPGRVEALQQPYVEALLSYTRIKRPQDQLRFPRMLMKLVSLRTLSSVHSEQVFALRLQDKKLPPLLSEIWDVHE

[17] = molecular target: T3, Probable nicotinate-nucleotide adenylyltransferase (Staphylococcus aureus (strain N315), UniProt P65502); assay type: functional, Staphylococcus aureus subsp. aureus N315;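 as to IC50 Mean: confirmatory dose-response retesting of NadD inhibitor hits first found in an ultra-high-throughput screen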
[18] = viability of uninfected HEp-2 cells – cell-based, HTS, cytotoxicity control for RSV inhibitor project, dose response (AID 2410); assay type: functional; conditions: human respiratory syncytial virus
[19] = molecular target: T3, Probable nicotinate-nucleotide adenylyltransferase; assay type: functional, Staphylococcus aureus subsp. aureus N315; conditions: read-out: IC50_Mean
Fatty acid synthase [20] = molecular target: T4, Fatty acid synthase (Homo sapiens, UniProt P49327); assay: inhibition of human FAS-TE enzyme activity – biochemical, kinetic fluorescence intensity, dose response (AID 624326); assay type: functional;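 also: rate of fluorescence rise from hydrolysis of a fluorogenic O-methyl fluorescein ester substrate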
Fatty acid synthase [21] = molecular target: T4, Fatty acid synthase; assay: inhibition of human FAS-TE enzyme activity – biochemical, endpoint fluorescence intensity, uHTS hits, dose response (AID 624327); assay type: functional;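 also: fluorescence from hydrolysis of an O-methyl fluorescein acyl ester substrate by the enzyme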

T4 sequence (P49327 whole entry): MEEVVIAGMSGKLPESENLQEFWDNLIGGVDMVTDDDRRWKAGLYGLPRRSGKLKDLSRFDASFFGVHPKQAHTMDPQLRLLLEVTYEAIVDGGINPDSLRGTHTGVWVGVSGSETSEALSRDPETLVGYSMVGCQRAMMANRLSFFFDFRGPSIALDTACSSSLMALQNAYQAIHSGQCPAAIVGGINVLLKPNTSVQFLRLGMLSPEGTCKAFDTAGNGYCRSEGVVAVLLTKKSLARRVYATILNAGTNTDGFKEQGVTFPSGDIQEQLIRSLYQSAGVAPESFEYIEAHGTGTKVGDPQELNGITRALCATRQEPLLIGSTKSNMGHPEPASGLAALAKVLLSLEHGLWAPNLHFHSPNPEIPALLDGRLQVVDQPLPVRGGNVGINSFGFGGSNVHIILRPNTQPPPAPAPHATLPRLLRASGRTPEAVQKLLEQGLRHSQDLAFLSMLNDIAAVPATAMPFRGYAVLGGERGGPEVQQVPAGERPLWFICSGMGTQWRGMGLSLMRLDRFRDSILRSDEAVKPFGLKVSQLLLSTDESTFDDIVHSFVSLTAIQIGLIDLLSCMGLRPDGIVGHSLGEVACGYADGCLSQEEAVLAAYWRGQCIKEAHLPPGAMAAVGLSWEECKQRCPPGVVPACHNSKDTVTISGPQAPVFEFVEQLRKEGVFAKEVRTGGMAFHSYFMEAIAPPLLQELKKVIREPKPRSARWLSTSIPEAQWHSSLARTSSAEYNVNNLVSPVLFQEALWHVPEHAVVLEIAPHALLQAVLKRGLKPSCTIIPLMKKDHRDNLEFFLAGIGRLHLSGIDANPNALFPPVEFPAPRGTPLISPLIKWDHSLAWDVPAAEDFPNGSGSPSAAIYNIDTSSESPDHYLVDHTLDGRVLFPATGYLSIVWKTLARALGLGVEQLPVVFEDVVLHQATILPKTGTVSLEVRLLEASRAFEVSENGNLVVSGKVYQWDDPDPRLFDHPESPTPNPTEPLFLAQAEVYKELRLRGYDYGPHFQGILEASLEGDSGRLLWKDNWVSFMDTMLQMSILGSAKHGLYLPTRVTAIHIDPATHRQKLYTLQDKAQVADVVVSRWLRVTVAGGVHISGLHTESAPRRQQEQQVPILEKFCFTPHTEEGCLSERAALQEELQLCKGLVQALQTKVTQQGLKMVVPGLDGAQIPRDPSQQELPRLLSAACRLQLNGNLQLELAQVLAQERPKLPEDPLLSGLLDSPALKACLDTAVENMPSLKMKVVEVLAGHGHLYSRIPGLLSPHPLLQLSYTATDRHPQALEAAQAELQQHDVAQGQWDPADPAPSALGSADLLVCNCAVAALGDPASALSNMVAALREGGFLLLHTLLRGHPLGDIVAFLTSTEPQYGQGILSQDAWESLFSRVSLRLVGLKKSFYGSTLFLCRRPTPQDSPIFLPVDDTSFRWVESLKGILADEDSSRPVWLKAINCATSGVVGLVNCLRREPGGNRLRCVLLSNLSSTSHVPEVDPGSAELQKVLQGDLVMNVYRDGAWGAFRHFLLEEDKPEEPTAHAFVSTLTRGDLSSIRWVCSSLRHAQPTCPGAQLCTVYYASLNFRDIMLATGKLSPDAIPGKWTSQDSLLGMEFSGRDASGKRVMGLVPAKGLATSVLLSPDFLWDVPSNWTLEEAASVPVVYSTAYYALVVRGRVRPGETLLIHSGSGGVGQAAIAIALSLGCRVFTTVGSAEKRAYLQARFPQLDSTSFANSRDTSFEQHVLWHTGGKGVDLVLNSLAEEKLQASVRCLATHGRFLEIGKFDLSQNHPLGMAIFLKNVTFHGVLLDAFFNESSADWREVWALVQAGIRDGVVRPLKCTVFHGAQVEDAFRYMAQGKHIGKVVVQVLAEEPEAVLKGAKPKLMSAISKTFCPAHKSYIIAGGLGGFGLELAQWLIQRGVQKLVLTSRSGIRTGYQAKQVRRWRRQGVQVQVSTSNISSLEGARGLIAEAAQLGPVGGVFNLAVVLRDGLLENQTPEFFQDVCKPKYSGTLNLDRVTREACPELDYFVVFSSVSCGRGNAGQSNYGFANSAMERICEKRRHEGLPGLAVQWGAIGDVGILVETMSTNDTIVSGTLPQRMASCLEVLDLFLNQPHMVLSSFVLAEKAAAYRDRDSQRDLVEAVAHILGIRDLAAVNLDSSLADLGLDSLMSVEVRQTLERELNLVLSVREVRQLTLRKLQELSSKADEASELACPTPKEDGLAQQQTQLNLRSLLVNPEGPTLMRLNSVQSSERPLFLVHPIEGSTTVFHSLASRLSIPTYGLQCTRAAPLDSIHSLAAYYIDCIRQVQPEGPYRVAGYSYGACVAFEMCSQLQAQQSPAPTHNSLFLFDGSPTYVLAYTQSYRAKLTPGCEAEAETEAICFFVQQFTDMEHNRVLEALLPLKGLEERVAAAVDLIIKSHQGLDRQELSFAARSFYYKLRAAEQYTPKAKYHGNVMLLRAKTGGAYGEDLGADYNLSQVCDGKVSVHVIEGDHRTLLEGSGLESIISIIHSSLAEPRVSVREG
T3 sequence (P65502 whole entry): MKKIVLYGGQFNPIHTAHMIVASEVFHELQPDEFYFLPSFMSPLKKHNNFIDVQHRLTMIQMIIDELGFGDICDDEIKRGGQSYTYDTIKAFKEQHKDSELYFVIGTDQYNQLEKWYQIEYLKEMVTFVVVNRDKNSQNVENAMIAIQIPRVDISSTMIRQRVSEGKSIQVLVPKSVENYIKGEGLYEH
Sequence of fMet-Leu-Phe receptor (P21462 whole entry): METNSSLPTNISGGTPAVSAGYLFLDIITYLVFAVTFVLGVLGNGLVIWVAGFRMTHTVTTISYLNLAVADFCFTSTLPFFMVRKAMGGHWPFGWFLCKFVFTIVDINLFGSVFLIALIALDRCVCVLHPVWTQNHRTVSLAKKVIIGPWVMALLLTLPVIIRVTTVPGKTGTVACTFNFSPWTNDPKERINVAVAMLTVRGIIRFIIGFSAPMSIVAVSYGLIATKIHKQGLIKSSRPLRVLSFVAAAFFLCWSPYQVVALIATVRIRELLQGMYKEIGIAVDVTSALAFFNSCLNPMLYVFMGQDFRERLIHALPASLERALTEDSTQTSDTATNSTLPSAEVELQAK

SMILES: Cc1ccc(Nc2nc(C3CC3)cs2)cc1
- Ki (fMet-Leu-Phe receptor): 43.1 µM (inactive)

SMILES: CN1C/C(=C/c2ccncc2)C(=O)/C(=C/c2ccncc2)C1
- EC50 (BJ [1]): 5.85 µM (inconclusive)
- EC50 (BJ [2]): 3.82 µM (active)
- EC50 (BJ [3]): 0.455 µM (active)
- EC50 [4]: 7.52 µM (active)
- EC50 (BJ [5]): 3.65 µM (inconclusive)

SMILES: Cc1c(C)c2cc(Cl)c(O)c(CN3CCCCC3)c2oc1=O
- Ki (fMet-Leu-Phe receptor): > 66.7 µM (inactive)

SMILES: O=C(NN=C(S)NCc1ccccc1)c1ccccc1OC(F)F
- IC50 [6]: > 122 µM (inactive)

SMILES: Cc1c(C(=O)OCC(=O)N2CC(=O)Nc3ccccc32)oc2ccc(Br)cc12
- EC50 (BJ [1]): > 150 µM (inconclusive)
- EC50 (BJ [2]): 10.1 µM (active)
- EC50 (BJ [3]): > 133 µM (inactive)
- EC50 [4]: 15.6 µM (active)
- EC50 (BJ [5]): 35.9 µM (active)

SMILES: O=C1NC(=O)N(CCc2ccc(F)cc2)C(=O)/C1=C\NCc1ccc2c(c1)OCO2
- IC50 [7]: 3.2 µM (active)
- IC50 [8]: > 80 µM (inactive)

SMILES: CCOC(=O)Cn1nnnc1CN(CCc1ccccc1)Cc1cc2cc(CC)ccc2nc1O
- AC50 [9]: 2.97 µM (active)
- AC50 [10]: 29.3 µM (active)
- AC50 [11]: 6.05 µM (active)
- AC50 [12]: 54.2 µM (active)
- AC50 [13]: 1.17 µM (active)

SMILES: O=C(NCC1CCCO1)c1cc(-c2ccccc2F)no1 (stereo not drawn)
- EC50 (cells [14]): 43.8 µM (active)
- EC50 (cells [15]): 190 µM (active)
- EC50 [16]: > 67.5 µM (inactive)

SMILES: O=[N+]([O-])c1ccc(Cl)c(S(=O)(=O)Nc2cccc(-c3ccc(N4CCCC4)nn3)c2)c1
- IC50 [17]: 6.57 µM (active)
- CC50 [18]: 14.7 µM (active)
- IC50 [19]: 23.5 µM (active)
- IC50 (Fatty acid synthase [20]): 7.65 µM (active)
- IC50 (Fatty acid synthase [21]): 8.75 µM (active)
